Data reported in a melting point compilation (Tetko et al.; mined from patent text by program, amines drawn as free bases though some values may be those of a salt).

SMILES	melting point [°C]
O=C(O)CCCc1ccc(CCNS(=O)(=O)c2ccccc2)cc1	70 to 71
CCC(OCCc1c2c3c(c(OCc4ccc(-c5ccccc5)cn4)ccc3n1Cc1ccc(Cl)cc1)SC(C)C2)C(=O)O (stereo unspecified)	159 to 162
COc1cccc(Nc2ccnc(Nc3ccc(OC)c(OC)c3)n2)c1	135 to 138
CC(=O)NC[C@H]1CN(c2ccc(N3CCC(F)(F)CC3)c(F)c2)C(=O)O1	192 to 194
CCC(=O)Nc1nnc2c3c(c(N4CCCCC4)nn12)CCCC3	173 to 174
NC(=O)c1ncc(Cl)cc1N	152 to 156
Cc1cc2cc(C#N)c(Cl)nc2cc1C	189 to 190
Nc1nc(Cl)cc(OCC(O)CO)n1 (stereo unspecified)	175 to 177
CCCS(=O)(=O)c1cccnc1S(=O)(=O)NC(=O)Nc1nc(OC)cc(OC)n1	168 to 170
CCOC(=O)c1ccc2[nH]c(C(=O)OCc3ccccc3)cc2c1	123
Cc1ccccc1N1CCc2c(C)nc3c(C)cccc3c21	126 to 128
CSc1ccc(Oc2ccc([N+](=O)[O-])cc2)cc1	59 to 61
Cn1c(=O)c2ccsc2n(CC2CC2)c1=O	75 to 77
CC1=CN2CCS(=O)(=O)N=C2C(c2ccc(OC3CCCCC3)cc2)=N1	216 to 217
OC1CCCc2ccc(-c3ccc4nc(-c5ccc(Cl)cc5)cn4c3)cc21 (stereo unspecified)	232 to 234
O=c1[nH]c(N[N+](=O)[O-])ncc1Cc1cccc2ccccc12	226 to 227
C[C@H]1CNCC[C@@]12OC(=O)c1ccccc12 (racemic)	131
Nc1nc(N2CCOCC2)nc2ccccc12	216 to 219
O=C(NCCCCCCO)Oc1ccc(Oc2ccccc2)cc1	72 to 75
CN(C(=O)OC(C)(C)C)c1cc(OCc2ccccc2)ccc1N	86 to 89
COc1ccccc1C(=O)OCC(=O)c1ccccc1	78 to 79
COc1cc(N)cc(N)c1	79 to 80
CCN(CC)C(=O)COC(=O)c1ccc(O)cc1	148 to 149
COc1ccc(C(O)C(=S)N(C)C)cc1 (stereo unspecified)	101
Cc1ccccc1CC(=O)Nc1cc(C)c(S(=O)(=O)C[N+](=O)[O-])c(C)c1	188 to 190
CC(=O)NCCNc1cccc(-c2cc(-c3ccc(F)cc3O)nc(NC(=O)c3ccco3)c2C#N)c1	158 to 160

SMILES	melting point [°C]
COc1ccc(/C(=N\O)c2cccc(NS(=O)(=O)N(C)C)c2)cc1	160 to 161
COC(=O)c1cccc2nc(SCCN3CCN(CC(=O)Nc4c(SC(C)C)cc(C)nc4SC(C)C)CC3)oc12	60 to 63
O=S1(=O)NCN(C2CC2)c2ccc(Cl)cc21	159 to 161
CC(=O)Oc1c(C)cc(C(=O)Nc2c(CO)nc3c(C)cc(C)cc3c2-c2ccccc2Cl)cc1C	134 to 136
Oc1ccccc1N1CCN(Cc2nc3ccccc3[nH]2)CC1	208 to 216
CCc1nccn1-c1nc(-c2ccc(Cl)cc2)c(CCCOc2ccccc2OC)o1	78 to 79
CCC(C)c1cc2c(cc1O)CC[C@@H]1[C@@H]2CC[C@]2(C)C(=O)CC[C@@H]12 (stereo partly specified)	186 to 187
Cc1cc(C(=O)NCc2ccccc2)c(N)s1	170
CCOc1ccc2c(S(=O)(=O)c3ccc(O)cc3)c(C(C)C)cn2c1	220 to 221
CCCCOc1cc(CCC(=O)O)n(Cc2ccc(C(F)(F)F)cc2Cl)n1	125 to 126
CCOC(=O)c1cc2n(c1)CN(C(=O)OCC)c1c(OC)cccc1-2	172 to 174
CNC(=O)c1ccc(Nc2nc(Nc3cc4c(cc3OC)CCN(Cc3ncco3)CC4)ncc2Cl)c(OC)c1	85 to 96
COc1cc(OC)nc(NC(=O)NS(=O)(=O)c2ccccc2C(CF)OC(C)=O)n1 (stereo unspecified)	176 to 178
CC1CCC2(OC1)OC1CC3C4CCC5CC(OCCO)CCC5(C)C4CCC3(C)C1C2C (stereo unspecified)	207 to 208
COc1ccc(-c2nc3sccn3c2/C=C/C(=O)c2ccc3c(c2)OCO3)cc1	189 to 191
O=C1c2cccc(O)c2NC(O)C2CCCN12 (stereo unspecified)	155 to 157
Cc1cccc(-c2c[nH]nc2-c2ccnc(-c3ccc(OCC(=O)N4CCOCC4)cc3)c2)n1	170
CCc1c(F)c(F)c(F)c2c1c(=O)c(C(=O)O)cn2C1CC1	197 to 198
CCSC1=NCC(=O)N1c1cc(Cl)ccc1C	137 to 139
O=C(NC(Cc1ccc(OCc2ccccc2)cc1)C(=O)O)c1cn2c(-c3ccc(Cl)cc3)cccc2n1 (stereo unspecified)	218
O=C(O)c1cccc(NCc2cccs2)c1C(=O)O	223 to 225
CS(=O)c1nnc(-c2ccc3ncn(-c4ccc(OC(F)F)cc4)c3c2)o1 (stereo unspecified)	135 to 136
COCOc1ccc2cc(Br)ccc2c1	46.8 to 49.2
COc1ccc(CN(C)CCc2ccc(NC(=O)c3cccc4c(=O)c5cccc(F)c5[nH]c34)cc2)cc1OC	175
CN1[C@H](Cc2ccc(C(N)=NO)cc2)[C@@H]2C(=O)N(Cc3ccccc3)C(=O)[C@@H]2C1(C)C (racemic)	189 to 192
CC(C)(C)c1ccc(C(O)CCCn2ccnc2)cc1 (stereo unspecified)	205 to 207

SMILES	melting point [°C]
C#CCCCCCCNC(=O)C(F)(F)F	29.5 to 30
CS(=O)(=O)c1cnc2c(c1)cc(-c1ncco1)n2Cc1ccc(F)cc1	200 to 201
CC(C)(C)OC(=O)NCCNC(=O)c1csc(Cl)n1	127 to 129
Cc1oc(-c2ccccc2)nc1C(O)COc1ccc(CCCC2OC(=O)NC2=O)cc1 (stereo unspecified)	146 to 147
Cc1nc(-n2cnn(CC3CC3)c2=O)sc1C(=O)NCc1cccnc1	116 to 117
O=c1nc(-c2ccc(CO)cn2)sc2ccccc12	247 to 248
CCOC(=O)c1ccc(-n2nc(-c3ccccc3O)nc2-c2ccccc2O)cc1	148 to 149
Clc1cc(Cl)nc(-n2cnc3ccccc32)n1	173 to 175
Cc1cc(-c2cn[nH]c2N)cc(C)n1	222
COC(=O)c1cccc([N+](=O)[O-])c1Nc1cccc2[nH]ncc12	152 to 154
CCc1nnc(-c2ccc(OC)c(OC)c2)n1-c1ccc(OC)cc1	148
CCC1=CN2CC(c3ccc(Br)cc3)N=C2S1 (stereo unspecified)	74.8
CC1(C)COC(c2ccccc2-c2ccc(C(=O)O)cc2)=N1	190 to 193
COc1cccc(-c2ccnc3c(C(N)=O)ncn23)c1	249 to 252
CCCOc1ccnc2[nH]ccc12	189 to 191
O=C(CBr)c1ccc(Cl)cc1OCc1ccccc1	75 to 78
OCc1nccn1CCCc1ccc(OCc2coc(/C=C/c3ccccc3)n2)cc1	143 to 144
Cc1ccc(C=CC(=O)c2ccccc2)o1	57 to 61
COc1ccc(-c2cc(-c3ccc(-c4c(Cc5ccccc5)sc5ccccc45)c(Br)c3)ccc2OCC(=O)O)cc1OC	103 to 105
CC(C)(C)OC(=O)NCc1cccc(C2CCN(C(=O)c3ccc(C#Cc4ccccc4F)o3)CC2)c1	111 to 113
O=C(O)COc1ccccc1C(=O)NCc1ccc(Br)cc1F	144 to 145
Cc1nnc(-c2ccc3occ(-c4ccc5c(c4)C(C)(C)CS5(=O)=O)c3c2)o1	242 to 243
O=C1NC(=O)C2(C(=O)N(Cc3ccc(Cl)c(Cl)c3)c3ccccc32)N1C(=O)OCc1ccccc1 (stereo unspecified)	215 to 217
CCNC1CCN(c2cccc(-c3cnc4[nH]cc(C(=O)C(C)(C)C)c4n3)c2)C1 (stereo unspecified)	200 to 202
Cc1c(Cc2cc(F)cc(Cl)c2)sc2c(-c3cccc(C(=O)NCCO)c3)cccc12	146 to 147
CC(=O)c1cccc2nc(SCCCN3CCCN(CC(=O)Nc4c(C(C)C)cccc4C(C)C)CC3)oc12	86 to 88

SMILES	melting point [°C]
N[C@H]1CCCC[C@H]1Nc1cc2c(cc1F)c(=O)c(C(=O)O)cn2C1CC1 (relative stereo)	270 to 274
O=c1ccc(C2(O)CCCCC2)c[nH]1	194 to 196
CCCCOCCOc1ccc(-c2ccc(N(C)CCC)c(C=CC(=O)O)c2)cc1	95 to 97
CS(=O)(=O)OCCNc1ccc(C(F)(F)F)cc1[N+](=O)[O-]	68 to 70
O=c1[nH]c2[nH]c3ccccc3c2c2ccccc12	> 310
CCOCc1nc2c(N)nc3cc(OCCCCCCNC(C)=O)ccc3c2n1CC(C)(C)NC(C)=O	190 to 192
CC(C)c1[nH]n(-c2c(Cl)cc(Cl)cc2Cl)c2nc(Cc3ccc(C(=O)O)cc3)nc(=O)c1-2	294 to 295
COC(=O)c1ncccc1N	139 to 146
CC(=O)OCc1c(Br)cccc1N1CCn2c(nc3c2CCCC3)C1=O	205 to 206
O=S1(=O)CCN(CC#Cc2cnc3c(c2)N(Cc2cc(Cl)ccc2Cl)CCN3)CC1	> 200
COc1cccc(CCNC(=O)Cc2cccs2)c1	50
Clc1nc(N2CCOCC2)nc(N2CCOCC2)n1	174
Cc1ccc2c(c1)CC(N1CCN(CCN3CCOC3=O)CC1)c1cc(C)ccc1O2 (stereo unspecified)	145 to 147
CC(=O)OC1CCC2(C)C(=CCC3C2C(OC(C)=O)CC2(C)C3CCC2(O)C(=O)CO)C1 (stereo unspecified)	231 to 233
CC(=O)OCCCCn1cnc2c(Cl)nc(Nc3ccccc3)nc21	195 to 197
COc1ccc(C(N)C2(C(=O)O)C3CC4CC(C3)CC2C4)cc1 (stereo unspecified)	205 to 213
O=C(NCCc1ccc(CN2CCCC2)cc1)N1CCC(c2ccc(Cl)cc2)CC1	116 to 117
CC1(C)OCCN1C(=O)C=Cc1ccccc1	107 to 109
CC(=O)c1ccc(N2C(=O)C(=O)N(c3cccc(Cl)c3)C2=O)cc1	148
CC(C)c1[nH]n(-c2c(Cl)cc(Cl)cc2Cl)c2nc(C(O)c3ccccc3)nc(=O)c1-2 (stereo unspecified)	246 to 248
COc1ccc(C(=O)Nc2ccc3ccc(CO)nc3n2)cc1	212
O=c1[nH]c2ncc(-c3cccnc3)nc2n1CC1CCCCC1	205
CCC(CCC1(C(N)=O)c2ccccc2-c2ccccc21)NC(C)C (stereo unspecified)	161 to 163
